From patent US5747235A, “Silver halide light sensitive emulsion layer having enhanced photographic sensitivity” (Eastman Kodak Company, priority 1996, dated 1998) come the findings set out here.

Assay [1] in a line: Example 6: spectral sensitivity, wedge spectrographic exposure, emulsion T-2. The settings on record: dye II 0.86 x10^-3, dyed control=100. The procedure: (§1) Additional testing was carried out to determine the response of the coatings described in Table III to a spectral exposure. Each of the coating strips was exposed for 0.1 sec on a wedge spectrographic instrument that covers the wavelength range from 400 to 750 nm. The instrument contains a tungsten light source and a step tablet ranging in density from 0 to 3 density units in 0.3 density steps. After developing exposed strips for 6 min in Kodak Rapid X-ray Developer (KRX), speed was read at 10 nm wavelength intervals at a density of 0.3 above fog. Correction for the instrument's variation in spectral irradiance with wavelength was done with a computer and a plot of log sensitivity vs. wavelength was generated. For this exposure, for each dye used, the relative sensitivity was set equal to 100 for the control coating with no fragmentable two-electron donor compound added.
The chemically sensitized AgErI tabular emulsion T-2 as described in Example 3 was used to prepare the experimental coating variations listed in Table VI, comparing fragmentable electron donating compounds PMT-1 and PMT-2 that contain a phenylmercaptotetrazole as the silver halide adsorbing group. For some of the experimental variations listed in Table VI the red sensitizing dye D-II was added from methanol solution to the emulsion at 40° C. after the chemical sensitization. The fragmentable electron donating compounds were then added to the emulsion and coatings prepared and tested for sensitivity at 365 nm and for spectral sensitivity as described in Example 3.

Assay [2] is described as follows: Example 3: spectral sensitivity, wedge spectrographic exposure, emulsion T-2. The settings on record: dyed control=100. As to the method: (§2) This emulsion was precipitated using deionized gelatin. […] The chemically sensitized emulsion was then used to prepare coatings containing the fragmentable two-electron donor compounds. All of the experimental coating variations in Table III contained the hydroxybenzene 2,4-disulfocatechol (HB3) at a concentration of 13 mmole/ mole Ag, added to the melt before the addition of any further addenda. Where present, the blue sensitizing dye D-I or the red sensitizing dye D-II were added from methanol solution to the emulsion at 40° C. after the chemical sensitization and disulfocatechol addition.
as §1

A short description of assay [3]: Example 10: photographic sensitivity and fog, color format, blue sensitized emulsion T-2. The settings on record: for Photographic Sensitivity SWR2B: control=100. As to the method:
The hydroxybenzene, 2,4-disulfocatechcol (HB3) at a concentration of 13×10^-3 mole/mole Ag was added to the emulsion melt before the start of the chemical sensitization procedure. […] The fragmentable two-electron donors S-3, S-9, S-6, or S-8 were then added to the emulsion melt.
The melts were prepared for coating by adding additional water, deionized gelatin and coating surfactants. Coatings were prepared by combining the emulsion melts with a melt containing deionized gelatin and an aqueous dispersion of the cyan-forming color coupler CC-1 and coating the resulting mixture on acetate support. […] The structure of the color coupler CC-1 is given below: [drawing 120]
For photographic evaluation, each of the coating strips was exposed for 0.01 sec to a 3000K color temperature tungsten lamp filtered to give an effective color temperature of 5500K and further filtered through a Kodak Wratten filter number 2B, and a step wedge ranging in density from 0 to 4 density units in 0.20 density steps. This exposure gives light absorbed mainly by the blue sensitizing dye. The exposed film strips were developed for 31/4 minutes in Kodak C-41 color developer. SWR2B, relative sensitivity for this filtered exposure, was evaluated at a cyan density of 0.15 units above fog.

Assay [4] can be described thus: Example 3: photographic speed and fog, 365 nm exposure, emulsion T-2. Set-up: Fog: unit not given here. The settings on record: for effect on dye desensitization: red dyed emulsion (D-II), 365 nm. As to the method: (§3) For photographic evaluation, each of the coating strips was exposed for 0.1 sec to a 365 nm emission line of a Hg lamp filtered through a Kodak Wratten filter number 18A and a step wedge ranging in density from 0 to 4 density units in 0.2 density steps. The exposed film strips were developed for 6 min in Kodak Rapid X-ray Developer (KRX). S365, relative sensitivity at 365 nm, was evaluated at a density of 0.2 units above fog.
as §2

Assay [5] in a line: Example 8: photographic speed and fog, 365 nm exposure, cubic emulsion C-1. Set-up: Fog: unit not given here. The following applies: for sensitivity increase: both undyed cubic emulsions (C-1 and C-2). The procedure:
as §3
Two cubic emulsions with uniform halide composition were precipitated using deionized gelatin. Emulsion C-1 was a AgErI emulsion with a 3% I content and a cubic edge length of 0.47 μm and emulsion C-2 was an AgBr emulsion with a cubic edge length of 0.52 μm. The emulsions were sulfur sensitized by adding 1,3-dicarboxymethyl-1,3-dimethyl-2-thiourea at 40° C.; the temperature was then raised to 60° C. at a rate of 5° C./3 min and the emulsions held for 20 min before cooling to 40° C. The amounts of the sulfur sensitizing compound used were 1.0×10^-5 mole/mole Ag for emulsion C-1, and 6.0×10^-6mole/mole Ag for emulsion C-2. These experimental coating variations contained the hydroxybenzene, 2,4-disulfocatechcol (HB3) at a concentration of 13 mmole/mole Ag, added to the melt before the addition of any further compounds. Some of the variations were then dyed with the sensitizing dye D-II, added from methanol solution. The fragmentable electron donor compounds were then added to the emulsion melts at 40° C. and coatings were prepared and tested as described in Example 1 except that the additional gelatin used to prepare the coatings described in Table VIII was deionized gelatin. Also, the dyed coatings were tested for their response to a spectral exposure as described in Example 3.

The mark [6] stands for this setting: 0.0022 x10^-3 mole/mole Ag, dye II 0.86 x10^-3.
The mark [7] stands for this setting: 0.022 x10^-3 mole/mole Ag, dye I 0.91 x10^-3.
Where [8] appears, read: 0.0022 x10^-3 mole/mole Ag, dye II 0.86 x10^-3, dyed control 68.
Setting [9] is: 0.007 x10^-3 mole/mole Ag, dye II 0.86 x10^-3.
[10] abbreviates: 0.022 x10^-3 mole/mole Ag, dye I 0.91 x10^-3, dyed control 105.
[11] abbreviates: 0.07 x10^-3 mole/mole Ag, dye I 0.91 x10^-3.
[12] abbreviates: 0.007 x10^-3 mole/mole Ag, dye II 0.86 x10^-3, dyed control 68.
Where [13] appears, read: 0.07 x10^-3 mole/mole Ag, dye I 0.91 x10^-3, dyed control 105.
The mark [14] stands for this setting: 0.07 x10^-3 mole/mole Ag, no dye.
Setting [15] is: 0.07 x10^-3 mole/mole Ag, no dye, control=100.
The mark [16] stands for this setting: 0.16 x10^-3 mol/mol Ag, no dye, control=100.

Structures can show the parent of a compound that is named as a salt.

Take `Cc1ccc(N(CCC(=O)Nc2cccc(-n3nnnc3S)c2)C(C)C(=O)O)cc1` (stereo not shown) [PMT-1]: the figures for the Sλ in assay [1] (0.0006 x10^-3 mole/mole Ag), in assay [1] (0.0017 x10^-3 mole/mole Ag) and in assay [1] (0.0055 x10^-3 mole/mole Ag) were 115, 145 and 126, respectively.

Regarding `CCSCCN(c1ccc(C)cc1)[C@@H](C)C(=O)[O-].[Na+]` [Compound S-3, N-(4-Methylphenyl)-N-(2-ethylthio-ethyl)alanine sodium salt], the Sλ turned out to be 166 in assay [2] (setting [6]) and 120 in assay [2] (setting [7]). The Fog in assay [3] (0.022 x10^-3 mol/mol Ag) is 0.14; in assay [3] (0.07 x10^-3 mol/mol Ag), 0.19; in assay [4] (setting [6]), 0.28; in assay [4] (setting [9]) it was 0.75; in assay [4] (setting [7]), 0.16; in assay [4] (0.022 x10^-3 mole/mole Ag, no dye), 0.13. In addition, the “Photographic Sensitivity SWR2B” value in assay [3] (0.022 x10^-3 mol/mol Ag) is 97; in assay [3] (0.07 x10^-3 mol/mol Ag) it was 110. Also, the S365 in assay [4] (setting [8]) was 120; in assay [4] (setting [10]), 132; in assay [4] (0.022 x10^-3 mole/mole Ag, no dye, control=100), 151. The “effect on dye desensitization” value in assay [4] is recorded as “effective in ameliorating dye desensitization”.

With `CCSCCN(c1ccc(C)cc1)C(CC(=O)O)C(=O)O` (stereo not shown) [Compound S-8], the Sλ in assay [2] (setting [6]) came to 141; in assay [2] (setting [9]), 166; in assay [2] (setting [7]), 112; in assay [2] (setting [11]), 112. Besides, the Fog in assay [3] (0.022 x10^-3 mol/mol Ag) came to 0.14; in assay [3] (0.07 x10^-3 mol/mol Ag), 0.23; in assay [4] (setting [6]), 0.11; in assay [4] (setting [9]), 0.15; in assay [4] (setting [7]) it was 0.07; in assay [4] (setting [11]) it was 0.12. The compound also gave a Fog in assay [4] (setting [14]) of 0.13. Further, the “Photographic Sensitivity SWR2B” value in assay [3] (0.022 x10^-3 mol/mol Ag) is 107; in assay [3] (0.07 x10^-3 mol/mol Ag) it was 110. Besides, the S365 in assay [4] (setting [8]) turned out to be 97; in assay [4] (setting [12]), 112; in assay [4] (setting [10]) it was 118; in assay [4] (setting [13]), 120; in assay [4] (setting [15]) it was 162. The “effect on dye desensitization” value in assay [4] is “effective in ameliorating dye desensitization”.

On to `CC(C(=O)O)N(CCC(=O)Nc1cccc(-n2nnnc2S)c1)c1ccccc1` (stereo not shown) [PMT-2], for which the results for the Sλ in assay [1] (0.0005 x10^-3 mole/mole Ag), in assay [1] (0.0016 x10^-3 mole/mole Ag) and in assay [1] (0.005 x10^-3 mole/mole Ag) were 123, 145 and 151, respectively.

For the compound `CCSCCN(c1ccc(C(=O)O)cc1)C(C)C(=O)O` (stereo not shown) [Compound S-11], the Fog in assay [5] (0.05 x10^-3 mol/mol Ag, dye II 0.44 x10^-3) is on record as 0.14; in assay [5] (0.16 x10^-3 mol/mol Ag, dye II 0.44 x10^-3), 0.16; in assay [5] (0.16 x10^-3 mol/mol Ag, no dye), 0.07; in assay [5] (0.50 x10^-3 mol/mol Ag, no dye), 0.07. The S365 in assay [5] (0.05 x10^-3 mol/mol Ag, dye II 0.44 x10^-3, dyed control 105) is on record as 162; in assay [5] (0.16 x10^-3 mol/mol Ag, dye II 0.44 x10^-3, dyed control 105), 186; in assay [5] (setting [16]), 219; in assay [5] (0.50 x10^-3 mol/mol Ag, no dye, control=100), 234. Also, in assay [5], the “sensitivity increase” value was “approximately a factor of two”.

Regarding `CCSCCN(c1ccccc1)C(C)C(=O)O` (stereo not shown) [Compound S-9, N-(Phenyl)-N-(2-thioethyl-ethyl)alanine sodium salt], the Sλ was 162 in assay [2] (setting [6]), 141 in assay [2] (setting [9]), 126 in assay [2] (setting [7]) and 138 in assay [2] (setting [11]). For the same compound, the Fog in assay [3] (0.022 x10^-3 mol/mol Ag) is reported as 0.16; in assay [3] (0.07 x10^-3 mol/mol Ag) it was 0.19; in assay [4] (setting [6]) it was 0.24; in assay [4] (setting [9]), 0.44; in assay [4] (setting [7]) it was 0.08; in assay [4] (setting [11]), 0.13. Moreover, the Fog in assay [4] (setting [14]) amounted to 0.13; in assay [5] (0.005 x10^-3 mol/mol Ag, dye II 0.44 x10^-3), 0.18; in assay [5] (0.016 x10^-3 mol/mol Ag, dye II 0.44 x10^-3), 0.21; in assay [5] (0.05 x10^-3 mol/mol Ag, no dye), 0.07; in assay [5] (0.16 x10^-3 mol/mol Ag, no dye) it was 0.07. Further, the “Photographic Sensitivity SWR2B” value in assay [3] (0.022 x10^-3 mol/mol Ag) stood at 162; in assay [3] (0.07 x10^-3 mol/mol Ag), 182. Moreover, the S365 in assay [4] (setting [8]) is listed as 115; in assay [4] (setting [12]), 107; in assay [4] (setting [10]), 159; in assay [4] (setting [13]), 162; in assay [4] (setting [15]) it was 166; in assay [5] (0.005 x10^-3 mol/mol Ag, dye II 0.44 x10^-3, dyed control 105), 162. Besides, the S365 in assay [5] (0.016 x10^-3 mol/mol Ag, dye II 0.44 x10^-3, dyed control 105) worked out at 191; in assay [5] (0.05 x10^-3 mol/mol Ag, no dye, control=100), 229; in assay [5] (setting [16]), 234. Further, the “effect on dye desensitization” value in assay [4] is on record as “effective in ameliorating dye desensitization”. The “sensitivity increase” value in assay [5] is given as “approximately a factor of two”.
